This note sets out measurements from US6610310B2, “Polyanionic polymers as adjuvants for mucosal immunization” (priority 1996, dated 2003).

Common to all, as to design: species or system mice
Common to all, as to conditions: mouse, in vivo

Assay [1] concerns influenza virus strain A/Texas.
Assay [2] concerns influenza virus, strain MRC-11.
Assay [3] has as its system Newcastle Disease Virus (NDV) strain Lasota.

Take Cholera toxin subunit B [CTB]: in assay [1], the “specific Ig-producing cells/10^6 cells 3 weeks following first immunization, mean; IgA in the lungs” value is 961 cells/10^6 cells. Also, the “anti-NDV Ig-producing cells/10^6 cells 3 weeks following immunization, mean; IgA in the lungs” value in assay [2] is 82 cells/10^6 cells. For the same substance, in assay [3], the “anti-NDV Ig-producing cells/10^6 cells 3 weeks following immunization, mean; IgA in the spleen” value worked out at 84 cells/10^6 cells; the “anti-NDV Ig-producing cells/10^6 cells 3 weeks following immunization, mean; IgG in the lungs” value was found to be 10 cells/10^6 cells; the “anti-NDV Ig-producing cells/10^6 cells 3 weeks following immunization, mean; IgG in the spleen” value was determined as 8 cells/10^6 cells; the “anti-NDV Ig-producing cells/10^6 cells 6 weeks following immunization, mean; IgA in the lungs” value is listed as 23 cells/10^6 cells.
